Source: PubChem BioAssay (NCI)
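Each compound was tested at five concentrations against cells in 96-well plates for 48 hours. GI50 marks 50% less growth. The concentration for full growth arrest is given as TGI.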

Columns and labels:
Experiment in all cases: NCI-60 cell line screen, 48 h
OVCAR-3 ovarian = tested on: OVCAR-3 ovarian
UO-31 renal = tested on: UO-31 renal
SK-MEL-28 melanoma = tested on: SK-MEL-28 melanoma
OVCAR-5 ovarian = tested on: OVCAR-5 ovarian
DU-145 prostate = tested on: DU-145 prostate
NCI-H522 lung = tested on: NCI-H522 lung
MDA-MB-231 breast = tested on: MDA-MB-231 breast
A549 NSCLC = tested on: A549 NSCLC
MOLT-4 leukemia = tested on: MOLT-4 leukemia
MDA-MB-468 breast = tested on: MDA-MB-468 breast
MDA-MB-435 = tested on: MDA-MB-435
786-0 renal = tested on: 786-0 renal
HCC-2998 colon = tested on: HCC-2998 colon
SF-295 CNS = tested on: SF-295 CNS
PC-3 prostate = tested on: PC-3 prostate
SNB-19 CNS = tested on: SNB-19 CNS
EKVX NSCLC = tested on: EKVX NSCLC
MCF7 breast = tested on: MCF7 breast
NCI-H460 lung = tested on: NCI-H460 lung
U251 CNS = tested on: U251 CNS
SNB-75 CNS = tested on: SNB-75 CNS
SF-268 CNS = tested on: SF-268 CNS
LOX IMVI melanoma = tested on: LOX IMVI melanoma
CCRF-CEM leukemia = tested on: CCRF-CEM leukemia
TK-10 renal = tested on: TK-10 renal
SK-MEL-5 melanoma = tested on: SK-MEL-5 melanoma
COLO 205 colon = tested on: COLO 205 colon

Work on `C=C1CC[C@@H]2[C@]3(C)COC(c4cn(-c5ccccc5)nc4-c4cccc([N+](=O)[O-])c4)O[C@@H]3CC[C@@]2(C)[C@@H]1C/C=C1/C(=O)OC[C@H]1O` (some centres undefined) yielded a GI50 (OVCAR-3 ovarian) of 1870 nM, a TGI (OVCAR-3 ovarian) of 3.75 µM and a GI50 (UO-31 renal) of 1820 nM. For the same molecule, the TGI (UO-31 renal) was 5.46 µM, the GI50 (SK-MEL-28 melanoma) was 2040 nM and the TGI (SK-MEL-28 melanoma) was 4.06 µM. It also gave a GI50 (OVCAR-5 ovarian) of 2060 nM, a TGI (OVCAR-5 ovarian) of 5.05 µM and a GI50 (DU-145 prostate) of 4.11 µM. For the same molecule, the TGI (DU-145 prostate) was 24.3 µM, the GI50 (NCI-H522 lung) was 1750 nM and the TGI (NCI-H522 lung) was 3.41 µM. It also gave a GI50 (MDA-MB-231 breast) of 1840 nM, a TGI (MDA-MB-231 breast) of 3.44 µM and a GI50 (A549 NSCLC) of 3.62 µM. For the same molecule, the TGI (A549 NSCLC) was > 100 µM, the GI50 (MOLT-4 leukemia) was 2870 nM and the TGI (MOLT-4 leukemia) was > 100 µM. The GI50 (MDA-MB-468 breast) was 1760 nM, the TGI (MDA-MB-468 breast) was 3.52 µM and the GI50 (MDA-MB-435) was 3.03 µM. For the same molecule, the TGI (MDA-MB-435) was 18.3 µM, the GI50 (786-0 renal) was 3.04 µM and the TGI (786-0 renal) was 10.3 µM. It also gave a GI50 (HCC-2998 colon) of 1920 nM, a TGI (HCC-2998 colon) of 3.53 µM and a GI50 (SF-295 CNS) of 1680 nM. It also gave a TGI (SF-295 CNS) of 3.19 µM, a GI50 (PC-3 prostate) of 2750 nM and a TGI (PC-3 prostate) of 9.04 µM. For the same molecule, the GI50 (SNB-19 CNS) was 3.65 µM, the TGI (SNB-19 CNS) was 15 µM and the GI50 (EKVX NSCLC) was 2750 nM. For the same molecule, the TGI (EKVX NSCLC) was 7.98 µM, the GI50 (MCF7 breast) was 2640 nM and the TGI (MCF7 breast) was > 100 µM. For the same molecule, the GI50 (NCI-H460 lung) was 2270 nM, the TGI (NCI-H460 lung) was 4.8 µM and the GI50 (U251 CNS) was 1740 nM. It also gave a TGI (U251 CNS) of 3.35 µM, a GI50 (SNB-75 CNS) of 7.34 µM and a TGI (SNB-75 CNS) of 50.1 µM. The GI50 (SF-268 CNS) was 7.65 µM, the TGI (SF-268 CNS) was > 100 µM and the GI50 (LOX IMVI melanoma) was 1720 nM. The TGI (LOX IMVI melanoma) was 3.34 µM, the GI50 (CCRF-CEM leukemia) was 1140 nM and the TGI (CCRF-CEM leukemia) was 5.01 µM. The GI50 (TK-10 renal) was 2220 nM, the TGI (TK-10 renal) was 5.82 µM and the GI50 (SK-MEL-5 melanoma) was 1630 nM. It also gave a TGI (SK-MEL-5 melanoma) of 3 µM, a GI50 (COLO 205 colon) of 2410 nM and a TGI (COLO 205 colon) of 5.06 µM.
